# In patent publication US20240327334A1, “Covalent Inhibitors As Antiviral Agents” (Enanta Pharmaceuticals, Inc., priority 2022, published 2024):
# How the values were obtained:
# [1] = biological target: SARS-CoV-2 Papain-like (PLpro) protease (Severe acute respiratory syndrome coronavirus 2, UniProt P0DTD1); test: SARS-CoV-2 Papain-like (PLpro) protease biochemical enzyme inhibition assay (ubiquitin-fluorophore substrate, Ub-R110); settings: Ub-R110 substrate; run in duplicate; read-out: PLpro IC50
# SARS-CoV-2 replicon = test: microbe, parasite or virus in culture; format: cell-based; settings: Severe acute respiratory syndrome coronavirus 2, Huh-7
smiles,measurement,setting,value
O=C(NCC#CBr)C(=O)NCc1ccccc1C(=O)NC1(c2ccc3ccccc3c2)CC1 [Example 163],IC50,[1],< 100 nM
same,EC50,SARS-CoV-2 replicon,< 1000 nM
O=C(NCC#Cc1cscn1)C(=O)NCc1ccccc1C(=O)NC1(c2ccc3ccccc3c2)CC1 [Example 165],IC50,[1],< 100 nM
same,EC50,SARS-CoV-2 replicon,1000 to 10000 nM
O=C(NCC#Cc1cncnc1)C(=O)NCc1ccccc1C(=O)NC1(c2ccc3ccccc3c2)CC1 [Example 166],IC50,[1],< 100 nM
same,EC50,SARS-CoV-2 replicon,< 1000 nM
O=C(NCC#Cc1nccs1)C(=O)NCc1ccccc1C(=O)NC1(c2ccc3ccccc3c2)CC1 [Example 167],IC50,[1],< 100 nM
same,EC50,SARS-CoV-2 replicon,< 1000 nM
O=C(NCC#Cc1ncccn1)C(=O)NCc1ccccc1C(=O)NC1(c2ccc3ccccc3c2)CC1 [Example 168],IC50,[1],< 100 nM
same,EC50,SARS-CoV-2 replicon,< 1000 nM
N#Cc1ccc(C#CCNC(=O)C(=O)NCc2ccccc2C(=O)NC2(c3ccc4ccccc4c3)CC2)cc1 [Example 171],IC50,[1],< 100 nM
same,EC50,SARS-CoV-2 replicon,< 1000 nM
O=C(NCC#Cc1cnccn1)C(=O)NCc1ccccc1C(=O)NC1(c2ccc3ccccc3c2)CC1 [Example 172],IC50,[1],< 100 nM
same,EC50,SARS-CoV-2 replicon,< 1000 nM
O=C(NC/C=C/S(=O)(=O)c1ccccc1)C(=O)NCc1ccccc1C(=O)NC1(c2ccc3ccccc3c2)CC1 [Example 173],IC50,[1],< 100 nM
same,EC50,SARS-CoV-2 replicon,< 1000 nM
O=C(NCC#Cc1ccccn1)C(=O)NCc1ccccc1C(=O)NC1(c2ccc3ccccc3c2)CC1 [Example 174],IC50,[1],< 100 nM
same,EC50,SARS-CoV-2 replicon,< 1000 nM
O=C(NCC#Cc1ccc(C(F)(F)F)cc1F)C(=O)NCc1ccccc1C(=O)NC1(c2ccc3ccccc3c2)CC1 [Example 175],IC50,[1],100 to 1000 nM
same,EC50,SARS-CoV-2 replicon,1000 to 10000 nM
O=C(NCC#Cc1ncc(F)cn1)C(=O)NCc1ccccc1C(=O)NC1(c2ccc3ccccc3c2)CC1 [Example 176],IC50,[1],< 100 nM
same,EC50,SARS-CoV-2 replicon,< 1000 nM
O=C(NCC#Cc1nc2ccccc2s1)C(=O)NCc1ccccc1C(=O)NC1(c2ccc3ccccc3c2)CC1 [Example 177],IC50,[1],100 to 1000 nM
same,EC50,SARS-CoV-2 replicon,1000 to 10000 nM
Cc1cc(C)nc(C#CCNC(=O)C(=O)NCc2ccccc2C(=O)NC2(c3ccc4ccccc4c3)CC2)n1 [Example 178],IC50,[1],< 100 nM
same,EC50,SARS-CoV-2 replicon,< 1000 nM
O=C(NCC#Cc1ncc(F)s1)C(=O)NCc1ccccc1C(=O)NC1(c2ccc3ccccc3c2)CC1 [Example 179],IC50,[1],< 100 nM
same,EC50,SARS-CoV-2 replicon,< 1000 nM
O=C(NCC#Cc1cnc(C2CC2)nc1)C(=O)NCc1ccccc1C(=O)NC1(c2ccc3ccccc3c2)CC1 [Example 180],IC50,[1],1000 to 10000 nM
same,EC50,SARS-CoV-2 replicon,1000 to 10000 nM
O=C(NCC#Cc1cnc(C(F)(F)F)nc1)C(=O)NCc1ccccc1C(=O)NC1(c2ccc3ccccc3c2)CC1 [Example 181],IC50,[1],< 100 nM
same,EC50,SARS-CoV-2 replicon,< 1000 nM
C[C@@H](C#Cc1nccs1)NC(=O)C(=O)NCc1ccccc1C(=O)NC1(c2ccc3ccccc3c2)CC1 [Example 183],IC50,[1],< 100 nM
same,EC50,SARS-CoV-2 replicon,< 1000 nM
C[C@@H](C#Cc1nccs1)NC(=O)C(=O)NCc1ccccc1C(=O)NC1(c2ccc3nn(C)cc3c2)CC1 [Example 184],IC50,[1],< 100 nM
same,EC50,SARS-CoV-2 replicon,< 1000 nM
C[C@@H](C#Cc1nccs1)NC(=O)C(=O)NCc1ccccc1C(=O)NC1(c2cc(F)cc(-c3cnn(C4CC4)c3)c2)CC1 [Example 185],IC50,[1],< 100 nM
same,EC50,SARS-CoV-2 replicon,< 1000 nM
COc1cccc(C#CCNC(=O)C(=O)NCc2ccccc2C(=O)NC2(c3ccc4ccccc4c3)CC2)n1 [Example 186],IC50,[1],< 100 nM
same,EC50,SARS-CoV-2 replicon,< 1000 nM
O=C(NCC#Cc1cc(F)ccn1)C(=O)NCc1ccccc1C(=O)NC1(c2ccc3ccccc3c2)CC1 [Example 187],IC50,[1],< 100 nM
same,EC50,SARS-CoV-2 replicon,< 1000 nM
O=C(NCC#Cc1ncc(F)cc1F)C(=O)NCc1ccccc1C(=O)NC1(c2ccc3ccccc3c2)CC1 [Example 188],IC50,[1],< 100 nM
same,EC50,SARS-CoV-2 replicon,< 1000 nM
O=C(NCC#Cc1ccc(C(F)(F)F)cn1)C(=O)NCc1ccccc1C(=O)NC1(c2ccc3ccccc3c2)CC1 [Example 189],IC50,[1],< 100 nM
same,EC50,SARS-CoV-2 replicon,< 1000 nM
N#Cc1ccc(C#CCNC(=O)C(=O)NCc2ccccc2C(=O)NC2(c3ccc4ccccc4c3)CC2)nc1 [Example 190],IC50,[1],< 100 nM
same,EC50,SARS-CoV-2 replicon,< 1000 nM
O=C(NCC#Cc1ncccc1C(F)(F)F)C(=O)NCc1ccccc1C(=O)NC1(c2ccc3ccccc3c2)CC1 [Example 191],IC50,[1],< 100 nM
same,EC50,SARS-CoV-2 replicon,< 1000 nM
O=C(NCC#Cc1ccc(F)cn1)C(=O)NCc1ccccc1C(=O)NC1(c2ccc3ccccc3c2)CC1 [Example 192],IC50,[1],< 100 nM
same,EC50,SARS-CoV-2 replicon,< 1000 nM
N#Cc1cccc(C#CCNC(=O)C(=O)NCc2ccccc2C(=O)NC2(c3ccc4ccccc4c3)CC2)n1 [Example 193],IC50,[1],< 100 nM
same,EC50,SARS-CoV-2 replicon,< 1000 nM
N#Cc1nc(C#CCNC(=O)C(=O)NCc2ccccc2C(=O)NC2(c3ccc4ccccc4c3)CC2)ccc1Cl [Example 194],IC50,[1],< 100 nM
same,EC50,SARS-CoV-2 replicon,< 1000 nM
COc1nccnc1C#CCNC(=O)C(=O)NCc1ccccc1C(=O)NC1(c2ccc3ccccc3c2)CC1 [Example 195],IC50,[1],< 100 nM
same,EC50,SARS-CoV-2 replicon,< 1000 nM
O=C(NCC#Cc1cccc(F)n1)C(=O)NCc1ccccc1C(=O)NC1(c2ccc3ccccc3c2)CC1 [Example 196],IC50,[1],< 100 nM
same,EC50,SARS-CoV-2 replicon,< 1000 nM
Cn1ccnc1C#CCNC(=O)C(=O)NCc1ccccc1C(=O)NC1(c2ccc3ccccc3c2)CC1 [Example 197],IC50,[1],< 100 nM
same,EC50,SARS-CoV-2 replicon,< 1000 nM
COc1cnc(C#CCNC(=O)C(=O)NCc2ccccc2C(=O)NC2(c3ccc4ccccc4c3)CC2)cn1 [Example 198],IC50,[1],< 100 nM
same,EC50,SARS-CoV-2 replicon,< 1000 nM
O=C(NCC#Cc1ccc(Cl)nn1)C(=O)NCc1ccccc1C(=O)NC1(c2ccc3ccccc3c2)CC1 [Example 199],IC50,[1],< 100 nM
same,EC50,SARS-CoV-2 replicon,< 1000 nM
CCOc1cccnc1C#CCNC(=O)C(=O)NCc1ccccc1C(=O)NC1(c2ccc3ccccc3c2)CC1 [Example 200],IC50,[1],< 100 nM
same,EC50,SARS-CoV-2 replicon,< 1000 nM
O=C(NCC#Cc1ncccc1OC(F)(F)F)C(=O)NCc1ccccc1C(=O)NC1(c2ccc3ccccc3c2)CC1 [Example 201],IC50,[1],< 100 nM
same,EC50,SARS-CoV-2 replicon,< 1000 nM
C[C@@H](C#Cc1ccc(C#N)cc1OC(F)(F)F)NC(=O)C(=O)NCc1ccccc1C(=O)NC1(c2ccc3nn(C)cc3c2)CC1 [Example 206],IC50,[1],< 100 nM
same,EC50,SARS-CoV-2 replicon,< 1000 nM
C[C@@H](C#Cc1ncccc1CC#N)NC(=O)C(=O)NCc1ccccc1C(=O)NC1(c2ccc3nn(C)cc3c2)CC1 [Example 209],IC50,[1],< 100 nM
same,EC50,SARS-CoV-2 replicon,< 1000 nM
Cn1cc2cc(C3(NC(=O)c4ccccc4CNC(=O)C(=O)NCC#Cc4ncccc4OCC(F)F)CC3)ccc2n1 [Example 211],IC50,[1],< 100 nM
same,EC50,SARS-CoV-2 replicon,< 1000 nM
C[C@@H](C#Cc1ncccc1OCC(F)F)NC(=O)C(=O)NCc1ccccc1C(=O)NC1(c2ccc3nn(C)cc3c2)CC1 [Example 212],IC50,[1],100 to 1000 nM
same,EC50,SARS-CoV-2 replicon,1000 to 10000 nM
CC[C@@H](C#Cc1ncc(F)cn1)NC(=O)C(=O)NCc1ccccc1C(=O)NC1(c2ccc3nn(C)cc3c2)CC1 [Example 213],IC50,[1],< 100 nM
same,EC50,SARS-CoV-2 replicon,< 1000 nM
Cn1cc2cc(C3(NC(=O)c4ccccc4CNC(=O)C(=O)NCC#Cc4ccc(C#N)cc4OC(F)(F)F)CC3)ccc2n1 [Example 214],IC50,[1],< 100 nM
same,EC50,SARS-CoV-2 replicon,< 1000 nM
COc1cc(C2(NC(=O)c3ccccc3CNC(=O)C(=O)NCC#Cc3ccc(C#N)cc3OC(F)(F)F)CC2)cc2cn(C3CC3)nc12 [Example 215],IC50,[1],< 100 nM
same,EC50,SARS-CoV-2 replicon,< 1000 nM
COc1cc(C2(NC(=O)c3ccccc3CNC(=O)C(=O)N[C@@H](C)C#Cc3ccc(C#N)cc3OC(F)(F)F)CC2)cc2cn(C3CC3)nc12 [Example 216],IC50,[1],< 100 nM
same,EC50,SARS-CoV-2 replicon,< 1000 nM
N#CCNC(=O)C(=O)NCc1ccccc1C(=O)NC1(c2ccc(F)c(Br)c2)CC1 [Example 217],IC50,[1],100 to 1000 nM
same,EC50,SARS-CoV-2 replicon,> 10000 nM
N#CCNC(=O)C(=O)NCc1ccccc1C(=O)NC1(c2cc(F)cc(Br)c2)CC1 [Example 218],IC50,[1],100 to 1000 nM
same,EC50,SARS-CoV-2 replicon,> 10000 nM
N#CCNC(=O)C(=O)NCc1ccccc1C(=O)NC1(c2ccc(F)c(-c3cccs3)c2)CC1 [Example 219],IC50,[1],< 100 nM
same,EC50,SARS-CoV-2 replicon,1000 to 10000 nM
N#CCNC(=O)C(=O)NCc1ccccc1C(=O)NC1(c2cc(F)cc(-c3cccs3)c2)CC1 [Example 220],IC50,[1],< 100 nM
same,EC50,SARS-CoV-2 replicon,1000 to 10000 nM
N#CCNC(=O)C(=O)NCc1ccccc1C(=O)NC1(c2ccc(F)c(-c3cnn(C4CC4)c3)c2)CC1 [Example 221],IC50,[1],< 100 nM
same,EC50,SARS-CoV-2 replicon,1000 to 10000 nM
N#CCNC(=O)C(=O)NCc1ccccc1C(=O)NC1(c2cc(F)cc(-c3cnn(C4CC4)c3)c2)CC1 [Example 222],IC50,[1],< 100 nM
same,EC50,SARS-CoV-2 replicon,> 10000 nM
C#CCNC(=O)C(=O)NCc1ccccc1C(=O)NC1(c2ccc(F)c(-c3cccs3)c2)CC1 [Example 223],IC50,[1],< 100 nM
same,EC50,SARS-CoV-2 replicon,< 1000 nM
C#CCNC(=O)C(=O)NCc1ccccc1C(=O)NC1(c2cc(F)cc(-c3cccs3)c2)CC1 [Example 224],IC50,[1],< 100 nM
same,EC50,SARS-CoV-2 replicon,< 1000 nM
C#CCNC(=O)C(=O)NCc1ccccc1C(=O)NC1(c2ccc(F)c(-c3cnn(C4CC4)c3)c2)CC1 [Example 225],IC50,[1],< 100 nM
same,EC50,SARS-CoV-2 replicon,< 1000 nM
C#CCNC(=O)C(=O)NCc1ccccc1C(=O)NC1(c2cc(F)cc(-c3cnn(C4CC4)c3)c2)CC1 [Example 226],IC50,[1],< 100 nM
same,EC50,SARS-CoV-2 replicon,< 1000 nM
C#CCNC(=O)C(=O)NCc1ccccc1C(=O)NC1(c2ccc(F)c(Br)c2)CC1 [Example 227],IC50,[1],< 100 nM
same,EC50,SARS-CoV-2 replicon,< 1000 nM
C#CCNC(=O)C(=O)NCc1ccccc1C(=O)NC1(c2cc(F)cc(Br)c2)CC1 [Example 228],IC50,[1],< 100 nM
same,EC50,SARS-CoV-2 replicon,< 1000 nM
COc1ccc(C2(NC(=O)c3ccccc3CNC(=O)C(=O)NCC#N)CC2)cc1Br [Example 229],IC50,[1],< 100 nM
same,EC50,SARS-CoV-2 replicon,1000 to 10000 nM
C#CCNC(=O)C(=O)NCc1ccccc1C(=O)NC1(c2ccc(OC)c(Br)c2)CC1 [Example 230],IC50,[1],< 100 nM
same,EC50,SARS-CoV-2 replicon,< 1000 nM
Cn1cc(-c2cc(C3(NC(=O)c4ccccc4CNC(=O)C(=O)NCC#N)CC3)ccc2F)cn1 [Example 231],IC50,[1],< 100 nM
same,EC50,SARS-CoV-2 replicon,> 10000 nM
C#CCNC(=O)C(=O)NCc1ccccc1C(=O)NC1(c2ccc(F)c(-c3cnn(C)c3)c2)CC1 [Example 232],IC50,[1],< 100 nM
same,EC50,SARS-CoV-2 replicon,< 1000 nM
Cc1nn(C)cc1-c1cc(F)cc(C2(NC(=O)c3ccccc3CNC(=O)C(=O)NCC#N)CC2)c1 [Example 233],IC50,[1],< 100 nM
same,EC50,SARS-CoV-2 replicon,> 10000 nM
